In article PMC8365602 (Journal of Medicinal Chemistry, 2021):

Columns and labels:
[1] = tested on: E. coli-stimulated macrophages; test: Arachidonic acid release from E. coli-stimulated macrophages; assay type: cell-based, human; conditions: ≤1 μM
Experimental: Macrophages were stimulated in PBS pH 7.4 (containing 1 mM CaCl2) with E. coli (serotype O6:K2:H1) at a ratio of 1:50 (macrophages: E. coli) for 180 min at 37 °C and 5% CO2.[24]
Fatty acids and lipid mediators were extracted from macrophage supernatants or murine peritoneal exudates (1 mL) after addition of two aliquots of ice-cold methanol.[23]d8-5S-HETE, d4-LTB4, d5-lipoxin A4, d5-resolvin D2, d4-PGE2 (200 nM, each, Cayman Chemicals), and d8-arachidonic acid (10 μM, Cayman Chemicals) were added as internal standards. After protein precipitation at −20 °C for ≥1 h, supernatants (1200g, 10 min, 4 °C) were acidified (pH 3.5) and loaded onto solid-phase cartridges (Sep-Pak Vac 6cc 500 mg/6 mL C18; Waters), which had been equilibrated with methanol and H2O. The columns were extensively washed with H2O and hexane before lipid mediators were eluted with methyl formate, evaporated to dryness, dissolved in methanol/H2O (50:50), and analyzed by UPLC-MS/MS.[23]
Absolute quantification was based on 6 internal and 45 external standards.[23]

[2] = biological target: mPGES-1 (Homo sapiens, UniProt O14684); test: mPGES-1 activity in microsomal preparations of IL-1β-treated A549 cells; assay type: biochemical; conditions: 10 μM
Experimental: Confluent cells were detached by trypsin-EDTA (GE Healthcare) and reseeded at a density of 1 × 10^4 cells/cm^2.
Differential centrifugation at 10 000g for 10 min and 174 000g for 1 h at 4 °C yielded the microsomal fraction. The pellet was resuspended in homogenization buffer and diluted in 0.1 M potassium phosphate buffer pH 7.4 containing 2.5 mM glutathione. Microsomal membranes (adjusted to 2.5–5 μg total protein) were preincubated with 27a for 15 min at 4 °C. The mPGES-1 substrate PGH2 (20 μM) was added to induce PGE2 formation.

[3] = biological target: T1, COX-1 (Homo sapiens, UniProt P23219); test: Platelet COX-1 activity (12-HHT formation); assay type: cell-based
T1 construct: Freshly isolated platelets (1 × 10^8) were preincubated with vehicle (DMSO) or 27a; endogenous in cells; host or cells: freshly isolated human platelets
Experimental: Freshly isolated platelets (1 × 10^8) were preincubated with vehicle (DMSO) or 27a for 5 min at room temperature. Arachidonic acid (5 μM) was added to induce 12-HHT formation.

[4] = tested on: CYP3A4; test: CYP3A4 expression in differentiated HepaRG cells; assay type: cell-based, human; conditions: 48 h
Experimental: HepaRG cells were seeded at a density of 2.6 × 10^4 cells/cm^2 in Williams’ E medium supplemented with 2 mM GlutaMAX (Thermo Fisher Scientific, Waltham, MA), 100 U/mL penicillin, 100 μg/mL streptomycin, 10% HyClone FCS (Thermo Fisher Scientific), 5 μg/mL insulin, and […] hydrocortisone-hemisuccinate. At confluence after two weeks, HepaRG cells were shifted to a medium supplemented with 1.7% DMSO for two additional weeks to obtain confluent differentiated cultures containing equal proportions of hepatocyte-like and progenitors/primitive biliary-like cells. These differentiated hepatic cell cultures were exposed to the compounds in Williams’ E medium supplemented with 2% FCS plus 0.2% DMSO for 48 h. […]
The assay plate was imaged and analyzed using the Cell Health Profiling BioApplications (HCS Studio Cellomics software Version x.6.4.3 (Build 7207)) on the ArrayScan VTI HCS Reader (Thermo Fisher Scientific—Cellomics, Pittsburgh, PA) using the 20× objective (Zeiss, LD Plan Neofluar 20×/0.4 korr). […]
The CYP3A4 expression was quantified using an arbitrary unit of fluorescent mass representing the combination of intensity and area adjusted to cell number calculated by nuclei counting (Hoechst).

[5] = tested on: reconstructed human epidermis (RHE); test: Experimental atopic dermatitis in reconstructed human epidermis (RHE); assay type: cell-based; conditions: RHE
Experimental: (§1) Compound 27a was evaluated in an inflammatory model of RHE by Synelvia S.A.S. (Labège, France) according to the company’s protocol.[88] In brief, primary human keratinocytes were used to generate RHE on polycarbonate filters as described.[88] RHE was allowed to acclimate for 6 days (5% CO2, 37 °C) prior to incubation with 27a (5, 10, 25 μM), dexamethasone (1 μM), or vehicle (0.05% DMSO), and a proinflammatory cytokine cocktail for 4 days at 5% CO2 and 37 °C. The culture medium including compounds and cytokines was changed on days 6, 8, and 10. Each culture condition was repeated three times. Acute cytotoxicity of 27a was excluded at the concentrations studied within 24 h by measuring the mitochondrial dehydrogenase activity (MTT assay).
Morphological changes (i.e., spongiosis and the formation of keratohyalin granules) were evaluated for sections of paraffin-embedded RHEs after hematoxylin-eosin staining.[89] The permeability of the skin barrier was estimated from the transepidermal water loss at the RHE surface.[90] The surface pH was determined with a pH electrode as reported.[89] The permeability of the stratum corneum was addressed by applying Lucifer yellow onto the RHE surface and inspecting the penetration by fluorescence microscopy.[88] TSLP and IL-8 levels were analyzed by ELISA (according to the specifications of Synelvia S.A.S.) in the culture medium on day 2 and day 4 after addition of cytokines, respectively.

[6] = tested on: mice sensitized to ovalbumin; test: Experimental model of murine asthma (ovalbumin sensitization); assay type: in vivo; conditions: 10 mg/kg p.o.
Experimental: Male CD-1 mice (33–39 g, 6–8 weeks, Charles River Laboratories; Calco, Italy) and female BALB/c mice (20 g, 8 weeks, Charles River Laboratories) were fed with standard rodent chow and water and acclimated for 4 days at a 12 h light and 12 h dark schedule in a constant air-conditioned environment (21 ± 2 °C). Mice were randomly assigned to groups, and experiments were carried out during the light phase.
BALB/c mice received 27a (p.o.) or vehicle (0.5% carboxymethylcellulose in 10% Tween 20; 0.5 mL) on days 0 and 7, 1 h (p.o) before being sensitized to ovalbumin (100 μg adsorbed to 3.3 mg of aluminum hydroxide gel, s.c., Sigma-Aldrich). Mice were sacrificed on days 1, 3, 8, 10, or 21 to collect lung and plasma. Bronchi were cut in rings of 1 to 2 mm length, placed in organ baths, and fixed to an isometric force transducer 7006 connected to a Powerlab 800 (AD Instruments, Ugo Basile, Comerio, Italy). After stretching the rings to a resting tension of 0.5g and equilibration for at least 30 min, the rings were challenged with carbachol (1 μM) until a reproducible response was observed. To assess bronchial reactivity, the cumulative response to carbachol (0.001 to 3.16 μM) was measured. Bronchial relaxation was determined from the cumulative response of precontracted bronchial tissues to salbutamol. Compound 27a, LTB4, and LTB4 isomers were analyzed in plasma and lung homogenates by UPLC-MS/MS. Lung tissue (100 mg/mL) was homogenized in PBS pH 7.4 at 4 °C for 1–2 min using an Omni tissue homogenizer (Omni, Kennesaw, GA).

[7] = tested on: human keratinocytes; test: Keratinocyte cytotoxicity (MTT) in the RHE model; assay type: cell-based; conditions: MTT assay
Experimental: as §1

T1 sequence (P23219 24-599): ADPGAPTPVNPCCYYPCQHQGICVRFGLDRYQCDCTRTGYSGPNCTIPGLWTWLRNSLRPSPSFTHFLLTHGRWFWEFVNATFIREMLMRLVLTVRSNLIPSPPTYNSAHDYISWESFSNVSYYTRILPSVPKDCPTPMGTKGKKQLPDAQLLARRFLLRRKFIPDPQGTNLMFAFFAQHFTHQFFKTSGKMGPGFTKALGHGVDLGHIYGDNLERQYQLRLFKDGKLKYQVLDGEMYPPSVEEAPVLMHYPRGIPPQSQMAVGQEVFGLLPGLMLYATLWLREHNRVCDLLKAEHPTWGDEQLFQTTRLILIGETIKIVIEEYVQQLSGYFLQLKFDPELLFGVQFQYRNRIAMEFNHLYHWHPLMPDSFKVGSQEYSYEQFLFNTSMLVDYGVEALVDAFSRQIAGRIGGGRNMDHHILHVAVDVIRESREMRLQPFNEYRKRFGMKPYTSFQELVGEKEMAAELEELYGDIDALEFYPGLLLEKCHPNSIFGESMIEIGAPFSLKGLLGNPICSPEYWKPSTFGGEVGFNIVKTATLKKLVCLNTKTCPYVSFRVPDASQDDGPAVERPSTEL
Sequence of mPGES-1 (O14684 whole entry): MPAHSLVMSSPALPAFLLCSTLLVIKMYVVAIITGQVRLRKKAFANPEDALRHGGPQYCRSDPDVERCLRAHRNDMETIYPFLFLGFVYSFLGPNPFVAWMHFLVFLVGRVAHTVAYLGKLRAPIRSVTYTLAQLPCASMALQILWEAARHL

C/C(=C\CC/C(C)=C/CC[C@]1(C)CCc2c(C)c(O)c(C)c(C)c2O1)CCC=C(CO)CO [Compound 27a, α-amplexichromanol]
Availability of free arachidonic acid [1]: neither reduced the availability of free arachidonic acid
mPGES-1 activity [2]: decreased mPGES-1 activity
COX-1 inhibition within human platelets [3]: not substantially inhibited
CYP450 enzyme (CYP3A4) expression [4]: did not induce CYP450 enzyme expression
TSLP expression ([5]; cytokine cocktail 2 days): did not influence TSLP expression
Epidermal disorganization induced by cytokine treatment ([5]; cytokine cocktail 4 days): attenuated the epidermal disorganization
IL-8 levels ([5]; cytokine cocktail 4 days): reduced IL-8 levels
Skin barrier functions (TEWL, Lucifer yellow) ([5]; cytokine cocktail 4 days): substantially improved skin barrier functions
pH at the RHE surface ([5]; cytokine cocktail 4 days): decreased even below the basal level
Lung levels of LTB4 and its isomers ([6]; day 3): lowered lung levels of LTB4 and its isomers
Adrenergic bronchial relaxation induced by salbutamol ([6]; day 21): fully restored the adrenergic bronchial relaxation induced by salbutamol
Ovalbumin-induced bronchial hyperreactivity to carbachol ([6]; day 21): blocked ovalbumin-induced bronchial hyperreactivity to carbachol
Cytotoxic effects on human keratinocytes [7]: excluded
